# Measurements as given in US9856216B2, “Compounds as TNIK, IKKε and TBK1 inhibitors and pharmaceutical composition comprising same” (GREEN CROSS CORPORATION, priority 2015, dated 2018).
# Where a name gives a salt, the structure may show the parent alone.
# Biological target: T1, TNIK (Homo sapiens, UniProt Q9UKE5)
# T1 construct: purchased Promega V4158
# Assay: ADP-Glo Kinase Assay, inhibition activity on TNIK
# Type: biochemical
# Details: not given
# Experimental: The inhibition activities on TNIK, IKKε and TBK1 were measured by a luminometer, TNIK/IKKε/TBK1 Kinase Enzyme System (Promega, Ca# V4158; Invitrogen, PR8031B, Promega, Ca# V3991) and ADP-Glo Kinase Assay using ADP-Glo™ Kinase Analysis Kit (Promega, Ca# V9101) and a kinase reaction buffer [40 mM Tris(pH 7.5), 20 mM MgCl2, 0.1 mg/mL BSA] in accordance with the manufacturer's protocol.
# T1 sequence (Q9UKE5 1-367 limits assumed): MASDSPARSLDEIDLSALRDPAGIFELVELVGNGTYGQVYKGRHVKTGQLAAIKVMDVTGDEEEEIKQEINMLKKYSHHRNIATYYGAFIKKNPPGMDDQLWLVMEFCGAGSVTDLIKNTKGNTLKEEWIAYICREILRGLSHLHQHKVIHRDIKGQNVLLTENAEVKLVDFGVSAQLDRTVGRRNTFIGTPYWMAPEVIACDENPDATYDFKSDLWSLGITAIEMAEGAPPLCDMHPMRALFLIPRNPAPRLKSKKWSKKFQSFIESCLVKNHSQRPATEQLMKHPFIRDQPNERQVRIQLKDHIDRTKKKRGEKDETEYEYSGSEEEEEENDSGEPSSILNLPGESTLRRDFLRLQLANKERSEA
row,Compound,TNIK (μM)
1,"O=C1NCc2c(-c3ccccc3)ccc(NCCCN3C(=O)c4ccccc4C3=O)c21 [Example 264, 2-(3-((3-Oxo-7-phenylisoindolin-4-yl)amino)propyl)isoindolin-1,3-dione]",Insoluble
2,"Nc1ccc(-c2ccc(F)cc2)c2c1C(=O)NC2 [Example 61, 7-Amino-4-(4-fluorophenyl)isoindolin-1-one]",Insoluble

# More lines, now with the values ahead:
row,TNIK (μM),Compound
1,Insoluble,"COc1ccc(-c2ccc(NC(=O)c3ccccc3)c3c2CNC3=O)c(OC)c1OC [Example 25, N-(3-oxo-7-(2,3,4-trimethoxyphenyl)isoindolin-4-yl)benzamide]"
2,Insoluble,"CN(C)c1cccc(C(=O)Nc2ccc(-c3ccccc3)c3c2C(=O)NC3)c1 [Example 95, 3-(Dimethylamino)-N-(3-oxo-7-phenylisoindolin-4-yl) benzamide]"

# Same assay, conditions: read-out: TNIK
row,Compound,IC50 [nM]
1,"Cc1ccccc1Nc1ccc(NC(=O)c2ccc(NCCCN3CCCCC3)cc2)c2c1CNC2=O [Example 483, N-(3-oxo-7-(o-tolylamino)isoindolin-4-yl)-4-((3-(piperidin-1-yl)propyl)amino)benzamide]",250
2,"CN1CCN(CCCNc2ccc(C(=O)Nc3ccc(-c4ccccc4)c4c3C(=O)NC4)cc2)CC1 [Example 329, 4-((3-(4-Methylpiperazin-1-yl)propyl)amino)-N-(3-oxo-7-phenylisoindolin-4-yl)benzamide]",440
3,"O=C(Nc1ccc(Nc2cc(C(F)(F)F)cc(C(F)(F)F)c2)c2c1C(=O)NC2)c1ccc(F)cc1 [Example 423, N-(7-((3,5-bis(trifluoromethyl)phenyl)amino)-3-oxoisoindolin-4-yl)-4-fluorobenzamide]",> 20000
4,"O=C(Nc1ccc(-c2cccc(F)c2F)c2c1C(=O)NC2)c1ccc(NCCN2CCCC2)cc1 [Example 365, N-(7-(2,3-difluorophenyl)-3-oxoisoindolin-4-yl)-4-((2-(pyrrolidin-1-yl)ethyl)amino)benzamide hydrochloride]",170
5,"CC(=O)Nc1ccccc1C(=O)Nc1ccc(-c2ccccc2)c2c1C(=O)NC2 [Example 106, 2-Acetamido-N-(3-oxo-7-phenylisoindolin-4-yl)benzamide]",> 20000
6,"COc1cccc(-c2ccc(NC(=O)c3ccc(NCCCN4CCCCC4)cc3)c3c2CNC3=O)c1OC [Example 308, N-(7-(2,3-dimethoxyphenyl)-3-oxoisoindolin-4-yl)-4-((3-(piperidin-1-yl)propyl)amino)benzamide]",53
7,"CN1CCN(CCCNc2ccc(C(=O)Nc3ccc(-c4ccco4)c4c3C(=O)NC4)cc2)CC1 [Example 295, N-(7-(furan-2-yl)-3-oxoisoindolin-4-yl)-4-((3-(4-methylpiperazin-1-yl)propyl)amino)benzamide]",520
8,"CCCCOc1ccccc1-c1ccc(NC(=O)c2ccccc2)c2c1CNC2=O [Example 45, N-(7-(2-butoxyphenyl)-3-oxoisoindolin-4-yl)benzamide]",> 20000
9,"O=C(Nc1ccc(Nc2ccccc2Cl)c2c1C(=O)NC2)c1ccc(NCCN2CCCCC2)cc1 [Example 454, N-(7-((2-chlorophenyl)amino)-3-oxoisoindolin-4-yl)-4-((2-(piperidin-1-yl)ethyl)amino)benzamide]",530
10,"O=C(Nc1ccc(Nc2cccc(Cl)c2)c2c1C(=O)NC2)c1ccc(NCCCN2CCCCC2)cc1 [Example 458, N-(7-((3-chlorophenyl)amino)-3-oxoisoindolin-4-yl)-4-((3-(piperidin-1-yl)propyl)amino)benzamide]",240
11,"Cc1ccccc1Nc1ccc(NC(=O)c2ccc(NCCCN3CCCC3)cc2)c2c1CNC2=O [Example 476, N-(3-oxo-7-(o-tolylamino)isoindolin-4-yl)-4-((3-(pyrrolidin-1-yl)propyl)amino)benzamide]",500
12,"O=C(Nc1ccc(Nc2ccccc2)c2c1C(=O)NC2)c1ccc(NCCCCO)cc1 [Example 484, 4-((4-Hydroxybutyl)amino)-N-(3-oxo-7-(phenylamino)isoindolin-4-yl)benzamide]",290
13,"COc1ccccc1Nc1ccc(NC(=O)c2ccc(NCCN3CCCC3)cc2)c2c1CNC2=O [Example 474, N-(7-((2-methoxyphenyl)amino)-3-oxoisoindolin-4-yl)-4-((2-(pyrrolidin-1-yl)ethyl)amino)benzamide]",440
14,"COCCCNc1ccc(C(=O)Nc2ccc(-c3cccnc3OC)c3c2C(=O)NC3)cc1 [Example 310, 4-((3-Methoxypropyl)amino)-N-(7-(2-methoxypyridin-3-yl)-3-oxoisoindolin-4-yl)benzamide]",390
15,"COc1ccccc1-c1ccc(NC(=O)c2ccc(NCCN3CCCC3)cc2)c2c1CNC2=O [Example 303, N-(7-(2-methoxyphenyl)-3-oxoisoindolin-4-yl)-4-((2-(pyrrolidin-1-yl)ethyl)amino)benzamide hydrochloride]",300
16,"O=C(Nc1ccc(-c2ccc(CN3CCCCC3)s2)c2c1C(=O)NC2)c1ccccc1 [Example 196, N-(3-oxo-7-(5-(piperidin-1-ylmethyl)thiophen-2-yl)isoindolin-4-yl)benzamide]",17700
17,"O=C(Nc1ccc(-c2ccccc2)c2c1C(=O)NCC2)c1ccc(NCCN2CCCC2)cc1 [Example 401, N-(1-oxo-5-phenyl-1,2,3,4-tetrahydroisoquinolin-8-yl)-4-((2-(pyrrolidin-1-yl)ethyl)amino)benzamide]",2150
18,"O=C(Nc1ccccc1)Nc1ccc(-c2ccc(F)cc2)c2c1C(=O)NC2 [Example 245, 1-(7-(4-Fluorophenyl)-3-oxoisoindolin-4-yl)-3-phenylurea]",6500
19,"O=C(Nc1ccc(Nc2ccccc2)c2c1C(=O)NC2)c1ccc(NC[C@H](O)CN2CCCCC2)cc1 [Example 489, (S)-4-((2-hydroxy-3-(piperidin-1-yl)propyl)amino)-N-(3-oxo-7-(phenylamino)isoindolin-4-yl)benzamide]",87
20,"COc1cccc(-c2ccc(NC(=O)c3ccco3)c3c2CNC3=O)c1OC [Example 134, N-(7-(2,3-dimethoxyphenyl)-3-oxoisoindolin-4-yl)furan-2-carboxamide]",54
21,"O=C(Nc1ccc(-c2ccccc2)c2c1C(=O)NC2)NC1CCCC1 [Example 239, 1-Cyclopentyl-3-(3-oxo-7-phenylisoindolin-4-yl)urea]",> 20000
22,"N#Cc1ccc(NC(=O)Nc2ccc(-c3ccccc3)c3c2C(=O)NC3)cc1 [Example 228, 1-(4-Cyanophenyl)-3-(3-oxo-7-phenylisoindolin-4-yl)urea]",> 20000
23,"NCCNc1ccc(C(=O)Nc2ccc(Nc3ccccc3)c3c2C(=O)NC3)cc1 [Example 481, 4-((2-Aminoethyl)amino)-N-(3-oxo-7-(phenylamino)isoindolin-4-yl)benzamide]",200
24,"CS(=O)(=O)Nc1ccc(-c2ccccc2)c2c1C(=O)NC2 [Example 250, N-(3-oxo-7-phenylisoindolin-4-yl)methanesulfonamide]",21000
25,"Cc1cccc(Nc2ccc(NC(=O)c3ccc(NCCN4CCCC4)cc3)c3c2CNC3=O)c1C [Example 469, N-(7-((2,3-dimethylphenyl)amino)-3-oxoisoindolin-4-yl)-4-((2-(pyrrolidin-1-yl)ethyl)amino)benzamide]",370

# Further lines, results first:
row,IC50 [nM],Compound
1,1300,"COc1cccc(-c2ccc(NC(=O)c3ccccc3)c3c2CNC3=O)c1 [Example 145, N-(7-(3-methoxyphenyl)-3-oxoisoindolin-4-yl)benzamide]"
2,> 20000,"Cc1ccsc1C(=O)Nc1ccc(-c2ccccc2)c2c1C(=O)NC2 [Example 109, 3-Methyl-N-(3-oxo-7-phenylisoindolin-4-yl)thiophene-2-carboxamide]"
3,2200,"Cc1ccccc1-c1ccc(NC(=O)c2ccccc2)c2c1CNC2=O [Example 112, N-(3-oxo-7-(o-tolyl)isoindolin-4-yl)benzamide]"
4,730,"Cc1ccc(C(=O)Nc2ccc(-c3ccccc3)c3c2C(=O)NC3)o1 [Example 192, 5-Methyl-N-(3-oxo-7-phenylisoindolin-4-yl)furan-2-carboxamide]"
5,300,"O=C(Nc1ccc(-c2ccccc2)c2c1C(=O)NC2)c1ccco1 [Example 212, N-(3-oxo-7-phenylisoindolin-4-yl)furan-2-carboxamide]"
6,> 20000,"COc1ccc(-c2ccc(NC(=O)c3ccccc3)c3c2CNC3=O)cc1 [Example 118, N-(7-(4-methoxyphenyl)-3-oxoisoindolin-4-yl)benzamide]"
7,13700,"O=C(Nc1ccc(-c2cccc(Cl)c2)c2c1C(=O)NC2)c1ccccc1 [Example 180, N-(7-(3-chlorophenyl)-3-oxoisoindolin-4-yl)benzamide]"
8,820,"O=C(Nc1ccc(Nc2ccccc2)c2c1C(=O)NC2)c1cccc(F)c1 [Example 421, 3-Fluoro-N-(3-oxo-7-(phenylamino)isoindolin-4-yl)benzamide]"
9,2800,"Cc1cccc(C(=O)Nc2ccc(-c3ccccc3)c3c2C(=O)NC3)c1 [Example 88, 3-Methyl-N-(3-oxo-7-phenylisoindolin-4-yl)benzamide]"
10,> 20000,"O=C(Nc1ccc(-c2ccc(Cl)cc2)c2c1C(=O)NC2)c1ccccc1 [Example 179, N-(7-(4-chlorophenyl)-3-oxoisoindolin-4-yl)benzamide]"
11,490,"CN(C)CCNc1ccc(C(=O)Nc2ccc(-c3ccccc3)c3c2C(=O)NC3)cc1 [Example 362, 4-((2-(Dimethylamino)ethyl)amino)-N-(3-oxo-7-phenylisoindolin-4-yl)benzamide]"
12,1100,"CSc1ccccc1-c1ccc(NC(=O)c2ccccc2)c2c1CNC2=O [Example 14, N-(7-(2-(methylthio)phenyl)-3-oxoisoindolin-4-yl)benzamide]"
13,1700,"Cc1ccc(-c2ccc(NC(=O)c3ccccc3)c3c2CNC3=O)c(C)c1 [Example 38, N-(7-(2,4-dimethylphenyl)-3-oxoisoindolin-4-yl)benzamide]"
14,> 20000,"COC(=O)c1cccc(-c2ccc(NC(=O)c3ccccc3)c3c2CNC3=O)c1 [Example 9, methyl 3-(7-benzamido-1-oxoisoindolin-4-yl)benzo ate]"
